# Measurements reported in publication PMC11775033, “Toxicokinetics of benzotriazole UV stabilizer UV-P in humans after single oral administration” (Archives of Toxicology, 2024).
# Several values for one entry are separate records, joined by “and”; a condition that tells them apart may be missing. Identical values can stand only once. Like-named read-outs stand apart in the source and are kept apart here.
# Key:
# [1] = human, cited from earlier work
# [2] = cited from earlier work
# [3] = design: method as in ref Fent et al. [2014]; Zhuang et al. [2017]; Sakuragi et al. [2021]; conditions: in vivo studies; ref Fent et al. [2014]; Zhuang et al. [2017]; Sakuragi et al. [2021]; cited from earlier work
# rats = test system: rats; design: method as in OECD [2017]; conditions: ref OECD [2017]; cited from earlier work
# [4] = test system: aryl hydrocarbon receptor; design: method as in ref Fent et al. [2014]; Kubota et al. [2022]; Liang et al. [2023]; Nagayoshi et al. [2015]; conditions: ref Fent et al. [2014]; Kubota et al. [2022]; Liang et al. [2023]; Nagayoshi et al. [2015]; cited from earlier work
# [5] = design: method as in ref Arisu et al. [1992]; Björkner and Niklasson [1997]; Niklasson and Björkner [1989]; conditions: ref Arisu et al. [1992]; Björkner and Niklasson [1997]; Niklasson and Björkner [1989]; cited from earlier work
# [6] = Renal excretion kinetics of UV-P in urine after single oral administration (human volunteer study); format: in vivo; conditions: for half-life: oral, 0.3 mg/kg body weight
# Protocol: Three healthy volunteers (two men and one person) aged between 23 and 57 years were included in the study. […] The NOAEL was used as a starting point and a safety factor of 100 was applied. As a result, 0.3 mg/kg body weight was administered to each participant.
# (§1) One blood and one urine sample were collected from each study participant prior to the oral administration of UV-P to determine potential background exposure. 14–27 mg of UV-P (see Table 1) were weighed onto a small piece of bread with butter, which was then consumed by the volunteers. From Subject 1, urine and blood samples were collected up to 72 h post-application. From the other two subjects, samples of urine and blood were collected up to 48 h post-application. The participants collected all urine voids in separate containers. Sampling times and volumes were recorded for each sample. The urine samples were aliquoted and stored at − 20 °C until analysis. 9 ml of blood were drawn from peripheral veins 1 h, 2 h, 3 h, 4 h, 5 h, 6 h, 10 h, 24 h, and 48 h after exposure and collected in EDTA-Monovettes®. From Subject 1, additional blood samples were drawn 8 h, 12 h, 32 h, and 72 h after exposure. Blood samples were stored at – 20 °C until analysis.
# The preparation and processing of urine samples was based on a method published by Fischer and Göen ([2021]). However, a few modifications were made. The samples were thawed at room temperature, thoroughly mixed, and subsequently centrifuged at 1600 × g for 2 min. 200 µl of the supernatant were transferred into a 10-ml glass, conical-bottomed centrifuge tube. 800 µl of water, 10 µl of the internal-standard spiking solution (10 mg/l of d4-UV-P in acetonitrile), and 1 ml of sodium acetate buffer (0.4 M, pH 5.0) were added to the samples. After vortex-mixing, 10 µl of β-glucuronidase/arylsulfatase from H. pomatia were added and the samples were briefly vortex-mixed. Enzymatic hydrolysis was performed at 37 °C for 16 h. Afterwards, 2 ml of water, 700 µl of isopropanol, and 400 µl of chloroform were added. The samples were vortex-mixed for 30 s and centrifuged at 2300 × g for 15 min. The lower organic phases were pipetted into 1.8-ml glass vials and evaporated to dryness, followed by the addition of 40 µl of toluene and 40 µl of BSA/TMCS. The samples were vortex-mixed and derivatized at room temperature for 10 min. Afterwards, 20 µl of 5% (v/v) TSIM were added. The samples were vortex-mixed and transferred into the micro-inserts of 1.8-ml glass vials. Finally, the samples were heated to 40 °C for 1 h and analyzed by GC–MS/MS.
# A nine-point calibration curve in the range of 10–5000 µg/l was applied for the analysis of the in vivo study samples. For calibration, two analyte spiking solutions containing 50 mg/l and 2 mg/l of UV-P were prepared in acetonitrile.
# The urinary creatinine content of the study samples was determined photometrically by the Jaffé’s method (Larsen [1972]). To quantify the unconjugated form of UV-P, the urine samples of one study participant were additionally processed without the addition of β-glucuronidase/arylsulfatase from H. pomatia and incubation at 37 °C.
# Renal excretion rates (RE, in µg/h) of UV-P at a certain point in time were calculated by the following equation: RE=ci×vi/ti-ti-1 where ci (in µg/l) is the concentration of UV-P in the urine sample i, vi (in l) is the volume of the respective urine sample, ti (in h) is the elapsed time value of sample collection, and ti–1 (in h) is the elapsed time value of the previous sample collection.
# [7] = Kinetics of UV-P in blood after single oral administration (human volunteer study); format: in vivo; conditions: for half-life: po, 0.3 mg/kg; for Tmax: oral, post-exposure, read-out: time of maximum blood levels
# Protocol: Three healthy volunteers (two men and one person) aged between 23 and 57 years were included in the study. The administered dose of UV-P was calculated with respect to an adequate distance from the no-observed-adverse-effect level (NOAEL) determined in toxicological studies in rats (30 mg/kg body weight per day) (OECD [2017]). The NOAEL was used as a starting point and a safety factor of 100 was applied. As a result, 0.3 mg/kg body weight was administered to each participant.
# as §1
# The preparation and processing of the blood samples was based on a previously published method (Fischer and Göen [2023]). The samples were stored at – 20 °C until analysis. The samples were thawed at room temperature and mixed on a roller mixer. 1 ml of each sample was pipetted into a separate 6-ml glass vial. 20 µl of the d4-UV-P spiking solution [1000 µg/l of d4-UV-P in a mixture of 0.9% NaCl solution and acetonitrile (v/v, 9:1)] was added. 1 ml of acetonitrile was added to the samples, which were then vortex-mixed for 1 min and centrifuged at 4000 × g for 15 min at room temperature. The supernatants were transferred to clean 6-ml glass vials. 0.5 ml of sodium acetate buffer (0.4 M, pH 5.0) and 10 µl of β-glucuronidase/arylsulfatase from H. pomatia were added. After brief vortex-mixing, the samples were incubated at 37 °C for 16 h. After incubation, the samples were transferred to conical-bottomed centrifuge tubes and diluted with 2.5 ml of water. 1 ml of acetonitrile and 700 µl of chloroform were added and the samples were vortex-mixed for 30 s and centrifuged at 2500 × g for 15 min. The lower organic phases were pipetted into separate 1.8-ml glass vials and evaporated to dryness, followed by the addition of 40 µl of toluene and 40 µl of BSA/TMCS. The samples were vortex-mixed and derivatized at room temperature for 10 min. Afterwards, 20 µl of 5% (v/v) TSIM were added. The samples were vortex-mixed and transferred into the micro-inserts of 1.8-ml glass vials. Finally, the samples were heated to 40 °C for 1 h and analyzed by GC–MS/MS.
# A seven-point calibration curve in the range of 0.5–150 µg/l was applied. Calibration standards were prepared by spiking human blood with various volumes of the UV-P spiking solutions containing 1000 µg/l or 100 µg/l of UV-P in a mixture of 0.9% NaCl solution and acetonitrile (v/v, 9:1). One sample each of Qlow (low-concentration quality-control material; 1 µg/l) and Qhigh (high-concentration quality-control material; 30 µg/l) was processed analogously to the samples in each analytical run. A reagent-blank sample, containing water instead of blood, was included in each analytical run as well. Any blank values were subtracted from the analytical results. The reliability criteria of the method are given in the Supplementary Information. […]
# human serum albumin = test system: human serum albumin; design: method as in Zhuang et al. [2016]; conditions: ref Zhuang et al. [2016]; cited from earlier work
compound,measurement,setting,value
"CCC(C)(C)c1cc(-n2nc3ccccc3n2)c(O)c(C(C)(C)CC)c1 [UV-328, 2-(2H-benzotriazol-2-yl)-4,6-di-tert-pentylphenol]",time of maximum concentrations in blood (average),"[1]; after oral administration, ref Fischer et al. [2023], Denghel et al. [2021]",8 h
same,share of ingested amount excreted via urine as parent compound,"[2]; accumulated until 72 h post-exposure, ref Denghel et al. [2021], Fischer et al. [2023]",0.001%
same,share of conjugation of renally eliminated compound,"[2]; human urine, ref Denghel et al. [2021], Fischer et al. [2023]",16%
same,sum of renally eliminated parent compound and metabolites,"[2]; share of ingested amount, ref Denghel et al. [2021], Fischer et al. [2023]",0.12%
"Cc1ccc(O)c(-n2nc3ccccc3n2)c1 [UV-P, 2-(2H-Benzotriazol-2-yl)-p-cresol]",endocrine effects in vivo,[3],no indication of endocrine effects
same,no-observed-adverse-effect level (NOAEL),rats,30 mg/kg body weight per day
same,activation of the aryl hydrocarbon receptor,[4],activates
same,allergic contact dermatitis,[5],cause allergic contact dermatitis
same,orally administered dose recovered in urine within 72 h,"[6]; Subject 1 only, 72 h",44.9%
same,time at which cumulative amount excreted via urine reached a plateau,"[6]; after exposure, Subject 1 (Figure SI-3)",about 24 h
same,half-life,"[6]; both sexes, human, urine, human urine, first phase until 7 h post-administration, n = 3, mean ± SD (range), read-out: t1/2—Phase 1 (renal excretion) (converted)",0.7 ± 0.2 h
same,half-life,"[6]; both sexes, human, urine, human urine, second elimination phase, n = 3, mean ± SD (range), read-out: t1/2—Phase 2 (renal excretion) (converted)",6.6 ± 1.1 h
same,Tmax,"[6]; both sexes, human, urine, po, 0.3 mg/kg, human urine, single oral 0.3 mg/kg, n = 3, mean ± SD (range), read-out: tmax (timepoint of maximum renal excretion rate)",3.5 ± 1.1 h
same,"FUE after 6 h (urinary excretion factor, % of dose)","[6]; human urine, 6 h, n = 3, mean ± SD (range)",26.7–33.2%
same,"FUE after 12 h (urinary excretion factor, % of dose)","[6]; human urine, 12 h, n = 3, mean ± SD (range)",30.4–40.2%
same,"FUE after 24 h (urinary excretion factor, % of dose)","[6]; human urine, 24 h, n = 3, mean ± SD (range)",31.7–43.3%
same,"FUE after 48 h (urinary excretion factor, % of dose)","[6]; human urine, 48 h, n = 3, mean ± SD (range)",37.2 ± 5.4% and 32.0–44.7% and 32–45% and 37%
same,REmax (maximum renal excretion rate),"[6]; human urine, single oral 0.3 mg/kg body weight, with enzymatic hydrolysis, n = 3, mean ± SD (range), 0.3 mg/kg",2896 ± 884 µg/h and 2896 ± 885 µg/h
same,tmax (timepoint of maximum renal excretion rate),"[6]; human urine, single oral 0.3 mg/kg, n = 3, mean ± SD (range), 0.3 mg/kg",2.6 to 5.0 h and 3 to 5 h
same,half-life,"[7]; both sexes, human, whole blood, human blood, single oral 0.3 mg/kg, first phase up to 6 h, n = 3, mean ± SD (range), read-out: t1/2—Phase 1 (blood) (converted)",1.3 ± 0.1 h
same,half-life,"[7]; both sexes, human, whole blood, human blood, single oral 0.3 mg/kg, second phase, n = 3, mean ± SD (range), read-out: t1/2—Phase 2 (blood) (converted)",7.7 ± 1.1 h
same,concentration at 6 h,"[7]; both sexes, human, whole blood, 6 h post-exposure, single oral 0.3 mg/kg, n = 3, read-out: mean blood level of UV-P",44 ± 30 ng/mL
same,concentration at 24 h,"[7]; both sexes, human, whole blood, 24 h post-exposure, single oral 0.3 mg/kg, n = 3, read-out: mean blood level of UV-P",2.5 ± 1.3 ng/mL
same,concentration at 48 h,"[7]; both sexes, human, whole blood, 48 h post-exposure, single oral 0.3 mg/kg, n = 3, read-out: mean blood level of UV-P",0.7 ± 0.7 ng/mL
same,Cmax,"[7]; both sexes, whole blood, human blood, single oral 0.3 mg/kg body weight, with enzymatic hydrolysis, n = 3, mean ± SD (range), read-out: cmax (maximum level of UV-P in blood)",184 ± 36 ng/mL
same,concentration at 72 h,"[7]; human, whole blood, 0.3 mg/kg body weight, 72 h after oral administration, Subject 1 only, read-out: blood level of UV-P",0.45 ng/mL
same,Tmax,"[7]; human, whole blood, 0.3 mg/kg body weight, third subject (Subject 1)",4 h
same,Tmax,"[7]; human, whole blood, 0.3 mg/kg body weight, two of the subjects (Subjects 2 and 3)",1 to 2 h
same,"slope of linear fit, blood levels without vs with hydrolysis (unconjugated share)",[7]; subject 1,0.133
same,"slope of linear fit, blood levels without vs with hydrolysis (unconjugated share)",[7]; subject 2,0.196
same,"slope of linear fit, blood levels without vs with hydrolysis (unconjugated share)",[7]; subject 3,0.135
same,binding to human serum albumin,human serum albumin,bind
CC(C)(C)c1cc(-n2nc3ccc(Cl)cc3n2)c(O)c(C(C)(C)C)c1 [UV-327],time of maximum concentrations in blood (average),"[1]; in vivo, po",6 h
same,sum of renally eliminated parent compound and metabolites,[2]; in vivo,0.03%
